The test system of test [1] is HUVEC. As to the kind of experiment: HUVEC assay, VEGF-stimulated endothelial cell proliferation. The settings on record: Homo sapiens, read-out: IC50 for inhibition of VEGF-stimulated endothelial cell proliferation. Format: cell-based.
Test [2] deals with tumour models. Particulars: once-daily oral administration; cited from earlier work.
Test [3] relates to Calu-6 tumour xenograft. Briefly: in vivo solid tumour model (WO 00/47212), Calu-6 tumour xenograft growth. The settings on record: once-daily oral, 28 days.
Test [4] relates to HUVEC. Briefly: HUVEC assay, basal endothelial cell proliferation. The class given is cell-based. Particulars: Homo sapiens, basal (unstimulated) proliferation, read-out: IC50 for inhibition of basal endothelial cell proliferation.

Each structure is given as a SMILES string.

Regarding `COc1cc2c(Oc3ccc4[nH]c(C)cc4c3F)ncnc2cc1OCCCN1CCCC1` [AZD2171, 4-[(4-fluoro-2-methyl-1H-indol-5-yl)oxy]-6-methoxy-7-[3-(pyrrolidin-1-yl)propoxy]quinazoline], the IC50 in test [1] is 0.4 ± 0.2 nM; in test [4], greater than 500 nM. Further, the “anti-tumour activity in a range of models” value in test [2] is reported as “broad-spectrum anti-tumour activity”. Besides, the “inhibition of growth of Calu-6 tumour xenograft” value in test [3] (1.5 mg/kg/day, P<0.01 one-tailed t test) came to 49%; in test [3] (3 mg/kg/day, P<0.0001 one-tailed t test), 69%; in test [3] (6 mg/kg/day, P<0.0001 one-tailed t test), 91%.

(Values after US7851623B2, “Chemical process” (AstraZeneca AB, priority 2006, dated 2010).)
